In this experiment the target is mTOR/GbL/Raptor (mTORC1) (Homo sapiens, UniProt P42345). In words: mTOR/GbL/Raptor (mTORC1) ELISA assay. Type of experiment: biochemical. The settings on record: phosphorylation of 4E-BP1; 0.2 nM mTORC1, 10 μM ATP; read-out: IC50 in this assay (mTORC1 ELISA). An outline of the steps:
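ELISA read-out: phospho-4E-BP1 captured on Ni-chelate plates and detected with anti-phospho antibody plus HRP-anti-IgG luminescence. The kinase step ran 120 min at ambient temperature with 0.2 nM human mTORC1, 10 µM ATP, 50 nM His-4E-BP1, 10 mM MnCl2, pH 7.2 HEPES.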

A word on the IC50: it is the midpoint of a concentration-inhibition curve. With `CC1(C)CCc2ncnc(N3CCOc4ccc(-c5cnc(N)c(S(=O)(=O)NC[C@H]6C[C@H]7CNC[C@H]7C6)c5)cc4C3)c2C1` [Example 384, 2-amino-5-[4-(6,6-dimethyl-5,6,7,8-tetrahydroquinazolin-4-yl)-2,3,4,5-tetrahydro-1,4-benzoxazepin-7-yl]-N-[(3aR,5r,6aS)-octahydrocyclopenta[c]pyrrol-5-ylmethyl]pyridine-3-sulfonamide], the IC50 fell in the range of 0.05 to 0.25 µM.

As for `Cc1nc2ccc(-c3ccc4c(c3)CN(c3ncnc5ccc(O)cc35)CCO4)cc2[nH]1` [Example 158, 4-[7-(2-methyl-1H-benzimidazol-6-yl)-2,3-dihydro-1,4-benzoxazepin-4(5H)-yl]quinazolin-6-ol], the IC50 is 0.01 to 0.05 µM. `CC(=O)OCc1nc(C)c(C(C)C)c(N2CCOc3ccc(-c4ccc5nc(C)[nH]c5c4)cc3C2)n1` [Example 686, {4-methyl-6-[7-(2-methyl-1H-benzimidazol-5-yl)-2,3-dihydro-1,4-benzoxazepin-4(5H)-yl]-5-(1-methylethyl)pyrimidin-2-yl}methyl acetate]: the IC50 was in the range of 0.01 to 0.05 µM. For `CC(O)c1nc2cc(-c3ccc4c(c3)CN(c3ncnc5c3CC(C)(C)CC5)CCO4)cnc2[nH]1` (stereo not shown) [Example 252, 1-{6-[4-(6,6-dimethyl-5,6,7,8-tetrahydroquinazolin-4-yl)-2,3,4,5-tetrahydro-1,4-benzoxazepin-7-yl]-3H-imidazo[4,5-b]pyridin-2-yl}ethanol], the IC50 was no more than 0.01 µM. For the compound `CC1(C)CCc2ncnc(N3CCOc4ccc(-c5cnc(N)c(CS(C)(=O)=O)c5)cc4C3)c2C1` [Example 517, 5-[4-(6,6-dimethyl-5,6,7,8-tetrahydroquinazolin-4-yl)-2,3,4,5-tetrahydro-1,4-benzoxazepin-7-yl]-3-[(methylsulfonyl)methyl] pyridin-2-amine], the concentration for half-maximal inhibition (IC50) was in the range of 0.01 to 0.05 µM.

`CC1CCc2c(ncnc2N2CCOc3ccc(-c4cnc5nc(N)[nH]c5c4)cc3C2)C1` (stereo not shown) [Example 179, 6-[4-(7-methyl-5,6,7,8-tetrahydroquinazolin-4-yl)-2,3,4,5-tetrahydro-1,4-benzoxazepin-7-yl]-1H-imidazo[4,5-b]pyridin-2-amine]: the IC50 was in the range of 0.01 to 0.05 µM.

Regarding `CCNc1nc2ccc(-c3ccc4c(c3)CN(c3ccnc5ccccc35)CCO4)cc2[nH]1` [Example 208, N-ethyl-6-(4-quinolin-4-yl-2,3,4,5-tetrahydro-1,4-benzoxazepin-7-yl)-1H-benzimidazol-2-amine], the IC50 is 0.05 to 0.25 µM. In the case of `Cc1nc2cc(-c3ccc4c(c3)CN(c3nc(CN(C)C)nc(C)c3Cl)CCO4)ccc2[nH]1` [Example 677, 1-{5-chloro-4-methyl-6-[7-(2-methyl-1H-benzimidazol-5-yl)-2,3-dihydro-1,4-benzoxazepin-4(5H)-yl]pyrimidin-2-yl}-N,N-dimethylmethanamine] it was no less than 2 µM; in that of `CC1(C)CCc2ncnc(N3CCOc4ccc(-c5cnc(Cl)c(OC(F)F)c5)cc4C3)c2C1` [Example 573, 7-{6-chloro-5-[(difluoromethyl)oxy]pyridin-3-yl}-4-(6,6-dimethyl-5,6,7,8-tetrahydroquinazolin-4-yl)-2,3,4,5-tetrahydro-1,4-benzoxazepine], 0.25 to 1 µM; in that of `Cc1nc2ccc(-c3ccc4c(c3)CN(c3nc(CN(C)C)nc5c3CC(C)(C)CC5)CCO4)cc2[nH]1` [Example 351, 1-{6,6-dimethyl-4-[7-(2-methyl-1H-benzimidazol-6-yl)-2,3-dihydro-1,4-benzoxazepin-4(5H)-yl]-5,6,7,8-tetrahydroquinazolin-2-yl}-N,N-dimethylmethanamine], 0.01 to 0.05 µM. In the case of `Cc1nc2ncc(-c3ccc4c(c3)CN(c3nc(CNC(C)C5CC5)nc5c3CC(C)(C)CC5)CCO4)cc2[nH]1` (stereo not shown) [Example 360, 1-cyclopropyl-N-({6,6-dimethyl-4-[7-(2-methyl-1H-imidazo[4,5-b]pyridin-6-yl)-2,3-dihydro-1,4-benzoxazepin-4(5H)-yl]-5,6,7,8-tetrahydroquinazolin-2-yl}methyl)ethanamine] it was 0.01 to 0.05 µM; in that of `CC1(C)CCc2ncnc(N3CCOc4ccc(-c5cnc(N)c(S(=O)(=O)N6CCC(O)C6)c5)cc4C3)c2C1` (stereo not shown) [Example 318], 0.01 to 0.05 µM. As for `CC(C)c1nc2ccc(-c3ccc4c(c3)CN(c3ccnc5ccccc35)CCO4)cc2[nH]1` [Example 203, 7-[2-(1-methylethyl)-1H-benzimidazol-6-yl]-4-quinolin-4-yl-2,3,4,5-tetrahydro-1,4-benzoxazepine], the IC50 lay in the range of 1 to 2 µM. Under `Nc1nc2ncc(-c3ccc4c(c3)CN(c3ncnc5cc(Cl)c(Br)cc35)CCO4)cc2[nH]1` [Example 185, 6-[4-(6-bromo-7-chloroquinazolin-4-yl)-2,3,4,5-tetrahydro-1,4-benzoxazepin-7-yl]-1H-imidazo[4,5-b]pyridin-2-amine] stands 0.01 to 0.05 µM.

`COC(=O)Nc1nc2ncc(-c3ccc4c(c3)CN(c3ccnc5cc(OC)c(OC)cc35)CCO4)cc2[nH]1` [Example 210, methyl (6-{4-[6,7-bis(methyloxy)quinolin-4-yl]-2,3,4,5-tetrahydro-1,4-benzoxazepin-7-yl}-1H-imidazo[4,5-b]pyridin-2-yl)carbamate]: the IC50 was in the range of 0.25 to 1 µM. Under `CCN(C)S(=O)(=O)c1cc(-c2ccc3c(c2)CN(c2ncnc4c2CC(C)(C)CC4)CCO3)cnc1N` [Example 395, 2-amino-5-[4-(6,6-dimethyl-5,6,7,8-tetrahydroquinazolin-4-yl)-2,3,4,5-tetrahydro-1,4-benzoxazepin-7-yl]-N-ethyl-N-methylpyridine-3-sulfonamide] stands 0.05 to 0.25 µM. Under `Cc1ncc(-c2ccc3c(c2)CN(c2ncnc4c2CCC(C)(C)C4)CCO3)s1` [Example 152, 4-(7,7-dimethyl-5,6,7,8-tetrahydroquinoazlin-4-yl)-7-(2-methyl-1,3-thiazol-5-yl)-2,3,4,5-tetrahydro-1,4-benzoxazepine] stands 0.25 to 1 µM.

Take `CCNc1nc2ccc(-c3ccc4c(c3)CN(c3ncnc(NCC)c3C)CCO4)cc2[nH]1` [Example 643, N-ethyl-6-{4-[6-(ethylamino)-5-methylpyrimidin-4-yl]-2,3,4,5-tetrahydro-1,4-benzoxazepin-7-yl}-1H-benzimidazol-2-amine]: the IC50 lay in the range of 0.25 to 1 µM. Take `Cc1nc2ncc(-c3ccc4c(c3)CN(c3nc(CNCC(F)(F)F)nc5c3CC(C)(C)CC5)CCO4)cc2[nH]1` [Example 591, N-({6,6-dimethyl-4-[7-(2-methyl-1H-imidazo[4,5-b]pyridin-6-yl)-2,3-dihydro-1,4-benzoxazepin-4(5H)-yl]-5,6,7,8-tetrahydroquinazolin-2-yl}methyl)-2,2,2-trifluoroethanamine]: the IC50 lay in the range of 0.01 to 0.05 µM.

Turning to `CC1=Cc2ncnc(N3CCOc4ccc(-c5cnc(N)c(S(=O)(=O)N6CC[C@@H](N)C6)c5)cc4C3)c2CC1(C)C` [Example 447, 3-{[(3R)-3-aminopyrrolidin-1-yl]sulfonyl}-5-[4-(6,6,7-trimethyl-5,6-dihydroquinazolin-4-yl)-2,3,4,5-tetrahydro-1,4-benzoxazepin-7-yl]pyridin-2-amine], the IC50 was no more than 0.01 µM. Under `CCNc1nc2ncc(-c3ccc4c(c3)CN(c3nc(C)nc5c3CC(C)(C)CC5)CCO4)cc2[nH]1` [Example 290, N-ethyl-6-[4-(2,6,6-trimethyl-5,6,7,8-tetrahydroquinazolin-4-yl)-2,3,4,5-tetrahydro-1,4-benzoxazepin-7-yl]-1H-imidazo[4,5-b]pyridin-2-amine] stands no more than 0.01 µM; under `Nc1nc2ncc(-c3ccc4c(c3)CN(c3ncnc5ccc(Cl)cc35)CCO4)cc2[nH]1` [Example 186, 6-[4-(6-chloroquinazolin-4-yl)-2,3,4,5-tetrahydro-1,4-benzoxazepin-7-yl]-1H-imidazo[4,5-b]pyridin-2-amine], 0.01 to 0.05 µM; under `CC[C@H]1CCc2c(ncnc2N2CCOc3ccc(-c4cnc5nc(N)[nH]c5c4)cc3C2)C1` [Example 537, 6-{4-[(7S)-7-ethyl-5,6,7,8-tetrahydroquinazolin-4-yl]-2,3,4,5-tetrahydro-1,4-benzoxazepin-7-yl}-1H-imidazo[4,5-b]pyridin-2-amine], no more than 0.01 µM. Under `CN1CCC[C@H](CNS(=O)(=O)c2cc(-c3ccc4c(c3)CN(c3ncnc5c3CC(C)(C)CC5)CCO4)cnc2N)C1` [Example 393, 2-amino-5-[4-(6,6-dimethyl-5,6,7,8-tetrahydroquinazolin-4-yl)-2,3,4,5-tetrahydro-1,4-benzoxazepin-7-yl]-N-{[(3S)-1-methylpiperidin-3-yl]methyl}pyridine-3-sulfonamide] stands 0.05 to 0.25 µM; under `Cc1nc2cc(-c3ccc4c(c3)CN(c3nc(CNCCF)nc(C)c3C(C)C)CCO4)ccc2[nH]1` [Example 679, 2-fluoro-N-({4-methyl-6-[7-(2-methyl-1H-benzimidazol-5-yl)-2,3-dihydro-1,4-benzoxazepin-4(5H)-yl]-5-(1-methylethyl)pyrimidin-2-yl}methyl)ethanamine], 0.01 to 0.05 µM. In the case of `C=C[C@H]1CCCc2c(ncnc2N2CCOc3ccc(-c4cnc5nc(C)[nH]c5c4)cc3C2)C1` [Example 489, 4-[(8S)-8-ethenyl-6,7,8,9-tetrahydro-5H-cyclohept[d]pyrimidin-4-yl]-7-(2-methyl-1H-imidazo[4,5-b]pyridin-6-yl)-2,3,4,5-tetrahydro-1,4-benzoxazepine] it was no more than 0.01 µM.

In the case of `CSc1nc2ccc(-c3ccc4c(c3)CN(c3ccnc5ccccc35)CCO4)cc2[nH]1` [Example 207, 7-[2-(methylthio)-1H-benzimidazol-6-yl]-4-quinolin-4-yl-2,3,4,5-tetrahydro-1,4-benzoxazepine], the IC50 was 0.05 to 0.25 µM. In the case of `Cc1cccc(Cc2c(C)ncnc2N2CCOc3ccc(-c4ccc5nc(C)[nH]c5c4)cc3C2)c1` [Example 82, 7-(2-methyl-1H-benzimidazol-6-yl)-4-{6-methyl-5-[(3-methylphenyl)methyl]pyrimidin-4-yl}-2,3,4,5-tetrahydro-1,4-benzoxazepine] it was 0.01 to 0.05 µM.

(Values after patent US8648066B2 (Exelixis, Inc., priority 2009, dated 2014).)
